From patent publication US12187758B2 (ROME Therapeutics, Inc., priority 2022, dated 2025)

Legend:
Type in all cases: cell-based
[1] = Mitochondria toxicity assay with PC3 cells, in-cell ELISA COX-1; conditions: 5 days treatment
Outline: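 This in-cell ELISA was run on fixed, permeabilized PC3 cells after 5-day exposure to titrated compound, with cytotoxicity measured on a duplicate plate. Results are reported as categories A (<1.0 μM) to E (>100.0 μM).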

PC3 cells = assay: Mitochondria toxicity assay with PC3 cells, cytotoxicity (Cell Titer Glo); conditions: Homo sapiens, PC-3, 120 h, 5 days treatment
Outline: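 PC3 cells in F-12K with 10% FBS exposed to a compound dose titration for 5 days at 37° C, 5% CO2. Viability by Cell Titer Glo luminescence after 30 min at room temperature; values binned A (<1.0 μM) to E (>100.0 μM).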

THP1-Dual KO-TREX1 cells = assay: THP1 TREX1 KO inhibition assay (type 1 interferon response); conditions: Homo sapiens, 144 h, type 1 interferon (QUANTI-LUC), 1 μM 5-aza-2′-deoxycytidine, six days
Outline: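 THP1-Dual KO-TREX1 cells were treated with a dose titration of compound, alone or with 1 μM 5-aza-2′-deoxycytidine, for six days at 37 °C. Type 1 interferon was read as secreted luciferase (QUANTI-LUC) in the supernatant, and viability by CellTiter-Glo luminescence.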

| Structure (SMILES) | IC50 [1] | IC50 (PC3 cells) | IC50 (THP1-Dual KO-TREX1 cells) |
| --- | --- | --- | --- |
| Nc1ccn([C@H]2C[C@H](O)[C@](CO)(CCl)O2)c(=O)n1 [Compound 2, 4-amino-1-((2R,4S,5R)-5-(chloromethyl)-4-hydroxy-5-(hydroxymethyl)tetrahydrofuran-2-yl)pyrimidin-2(1H)-one] | < 1 µM | > 100 µM | 0.05 to 0.1 µM |
| C[C@@H]1[C@H](n2ccc(N)nc2=O)O[C@@](CO)(CCl)[C@H]1O [Compound 12, 4-amino-1-((2R,3S,4S,5R)-5-(chloromethyl)-4-hydroxy-5-(hydroxymethyl)-3-methyltetrahydrofuran-2-yl)pyrimidin-2(1H)-one] | > 100 µM | > 100 µM | > 1 µM |
| CO[C@@H]1[C@H](n2ccc(N)nc2=O)O[C@@](CO)(CCl)[C@H]1O [Compound 13, 4-amino-1-((2R,3S,4S,5R)-5-(chloromethyl)-4-hydroxy-5-(hydroxymethyl)-3-methoxytetrahydrofuran-2-yl)pyrimidin-2(1H)-one] | > 100 µM | > 100 µM | > 1 µM |
| Nc1nc(=O)n([C@H]2C[C@H](O)[C@](CO)(CCl)O2)cc1F [Compound 14, 4-amino-1-((2R,4S,5R)-5-(chloromethyl)-4-hydroxy-5-(hydroxymethyl)tetrahydrofuran-2-yl)-5-fluoropyrimidin-2(1H)-one] | > 100 µM | > 100 µM | 0.1 to 0.25 µM |
| Nc1ncnc2c1ncn2[C@H]1C[C@H](O)[C@](CO)(CCl)O1 [Compound 15, (2R,3S,5R)-5-(6-amino-9H-purin-9-yl)-2-(chloromethyl)-2-(hydroxymethyl)tetrahydrofuran-3-ol] | > 100 µM | > 100 µM | > 1 µM |
| Nc1ccn([C@H]2C[C@H](O)[C@](CO)(C3CC3)O2)c(=O)n1 [Compound 16, 4-amino-1-((2R,4S,5R)-5-cyclopropyl-4-hydroxy-5-(hydroxymethyl)tetrahydrofuran-2-yl)pyrimidin-2(1H)-one] | > 100 µM | > 100 µM | > 1 µM |
| C[C@@H]1[C@H](n2ccc(N)nc2=O)O[C@](C)(CO)[C@H]1O [Compound 19, 4-amino-1-((2R,3S,4S,5R)-4-hydroxy-5-(hydroxymethyl)-3,5-dimethyltetrahydrofuran-2-yl)pyrimidin-2(1H)-one] | 10 to 50 µM | 50 to 100 µM | > 1 µM |
| C#C[C@]1(CO)O[C@@H](n2cnc3c(N)nc(Cl)nc32)C[C@@H]1O [Compound 25] | 50 to 100 µM | > 100 µM | > 1 µM |
| Nc1ccn([C@@H]2O[C@@](CO)(CCl)[C@@H](O)[C@@H]2F)c(=O)n1 [Compound 40, 4-amino-1-((2R,3S,4R,5R)-5-(chloromethyl)-3-fluoro-4-hydroxy-5-(hydroxymethyl)tetrahydrofuran-2-yl)pyrimidin-2(1H)-one] | > 100 µM | > 100 µM | > 1 µM |
| CC[C@]1(CO)O[C@@H](n2ccc(N)nc2=O)C[C@@H]1O [Compound 44, 4-amino-1-((2R,4S,5R)-5-ethyl-4-hydroxy-5-(hydroxymethyl)tetrahydrofuran-2-yl)pyrimidin-2(1H)-one] | > 100 µM | > 100 µM | > 1 µM |
| CC[C@]1(CO)O[C@@H](n2ccc(N)nc2=O)[C@@H](F)[C@@H]1O [Compound 51, 4-amino-1-((2R,3S,4R,5R)-5-ethyl-3-fluoro-4-hydroxy-5-(hydroxymethyl)tetrahydrofuran-2-yl)pyrimidin-2(1H)-one] | 10 to 50 µM | > 100 µM | > 1 µM |
| [N-]=[N+]=N[C@]1(CO)O[C@@H](n2cc(F)c(N)nc2=O)C[C@@H]1O [Compound 61, 4-amino-1-((2R,4S,5R)-5-azido-4-hydroxy-5-(hydroxymethyl)tetrahydrofuran-2-yl)-5-fluoropyrimidin-2(1H)-one] | > 100 µM | > 100 µM | > 1 µM |
| Nc1nc(=O)n([C@@H]2O[C@@](CO)(CCl)[C@@H](O)[C@@H]2F)cc1F [Compound 67, 4-amino-1-[(2R,3S,4R,5R)-5-(chloromethyl)-3-fluoro-4-hydroxy-5-(hydroxymethyl)oxolan-2-yl]-5-fluoropyrimidin-2-one] | > 100 µM | > 100 µM | 0.25 to 1 µM |
| Nc1nc(=O)n([C@@H]2O[C@@](CO)(CF)[C@@H](O)[C@@H]2O)cc1F [Compound 72, 4-amino-5-fluoro-1-((2R,3S,4S,5R)-5-(fluoromethyl)-3,4-dihydroxy-5-(hydroxymethyl)tetrahydrofuran-2-yl)pyrimidin-2(1H)-one] | 50 to 100 µM | 50 to 100 µM | > 1 µM |
| Nc1nc(=O)n([C@@H]2O[C@@](CO)(CF)[C@@H](O)[C@@H]2F)cc1F [Compound 85, 4-amino-5-fluoro-1-[(2R,3S,4R,5R)-3-fluoro-5-(fluoromethyl)-4-hydroxy-5-(hydroxymethyl)oxolan-2-yl] pyrimidin-2-one] | > 100 µM | > 100 µM | 0.25 to 1 µM |
| Nc1nc(=O)n([C@H]2C[C@H](O)[C@](CO)(CBr)O2)cc1F [Compound 88, 4-amino-1-((2R,4S,5R)-5-(bromomethyl)-4-hydroxy-5-(hydroxymethyl)tetrahydrofuran-2-yl)-5-fluoropyrimidin-2(1H)-one] | 10 to 50 µM | > 100 µM | 0.25 to 1 µM |
